# Measurements published in patent US9127255B2, “3-dimensional scaffolds for improved differentiation of pluripotent stem cells to hepatocytes” (Takara Bio Europe AB, priority 2010, dated 2015).
# Test system: CYP2C9
# Assay: CYP2C9 activity and induction in cells cultured in Alvatex (ReInnervate) scaffolds, OH-Diclophenac by HPLC
# Type: cell-based, human
# Conditions: cells cultured on 3D surfaces (FIG. 8)
# Method: Cell line SA461 (Cellartis AB) was cultured and differentiated according to conditions in Examples 1 and 2, experiment 083 and then according to the scheme below: Cells were induced with 1 mM Phenobarbital, 10 μM dexamethasone and 5 μM β-naphthoflavone. To each well, either induction or control medium was added (400 ul/well 2D cultures, 2000 ul/well in […] scaffolds) and the plate was incubated 24 h. After 24 hours of induction, all wells were washed 2× in DPBS+/+ and activity assay medium was added, 200 ul/well in 2D controls and 1000 ul/well in ReInnervate scaffolds. […] After 16 hours incubation at 37 C, the medium was transferred to eppendorf tubes and spun down for 20 min at 4° C. and 10000 g. […] Figures show CYP response in hESC-derived hepatocytes cultured either on […]) or 2D control, cells induced with Diclofenac to mimic hepatic liver activity. Activity assay performed at day 23 and day 29 as indicated.
structure (smiles),measurement,value
O=C(O)Cc1ccccc1Nc1c(Cl)cccc1Cl [diclophenac],CYP2C9 activity when cells were treated,elevated
